Laboratory results: article PMC9741104, “Uptake of Flaxseed Dietary Linusorbs Modulates Regulatory Genes Including Induction of Heat Shock Proteins and Apoptosis” (Foods, 2022)
Several values for one entry are separate records, joined by “and”; a condition that tells them apart may be missing. Identical values can stand only once. Like-named read-outs stand apart in the source and are kept apart here. Marks after values point to notes of the source that are not given here.

Assays:
[1] = Circular dichroism secondary structure estimate in aqueous-DMSO solution; format: physicochemical; conditions: CD spectra 260–200 nm, H2O/DMSO (3%, v/v), room temperature, CDNN deconvolution, triplicate
Description: Circular dichroism (CD) spectroscopy was performed on LO samples using a fresh solution of aqueous-dimethylsulfoxide solution (H2O/DMSO, 3%, v/v). CD measurements were completed using a Pistar 180 spectrometer (Applied Photophysics Ltd., Leatherhead, UK). Sample measurements were conducted at room temperature using a 0.01 cm cuvette (Hellma 106-QSP), and samples were scanned between 200–260 nm at 0.5 nm increments, with a scan rate of 10 nm/min. The instrument was calibrated using (+)-10-camphorsulfonic acid (290.5 nm wavelength). Experiments were performed in triplicate and are reported as mean ± standard deviation (SD). The secondary structure content of the samples was evaluated with the CDNN CD Spectroscopy Deconvolution software version 2.0.3.188 [30]. Molar ellipticities were calculated from molecular masses of 977.26–1074.37 Da for LOs. All spectra were corrected by background subtraction of H2O/DMSO (3%, v/v).

Calu-3 cells = experiment: Microarray analysis of apoptosis-regulating genes (Rt2 Profiler PCR Super Array); format: cell-based, human; parameters: key: +: genes over-expressed; NE: not expressed; –: genes under-expressed; conditions: Calu-3 exposed to LOs
Description: Human bronchial epithelial adenocarcinoma cell line (Calu-3) was obtained from the American Type Culture Collection (ATCC, Manassas, VA, USA). Calu-3 cell line was cultured in plastic culture flasks containing Modified Eagle’s Medium (MEM) and supplemented with 10% fetal bovine serum, glutamine (4 mM), and penicillin (100 U/mL)-streptomycin (100 μg/mL) solution. Cells were cultured to a density of 10^6 cells/mL before adding fresh media (on day 3). The cells were then grown at 37 °C under 5% CO2, and 100% humidity.
Microarray analysis was performed to determine LO effects on the expression of genes involved in regulating apoptosis (i.e., pro- or anti-apoptotic genes) in Calu-3 cells. These analyses were using an Rt2 Profiler PCR Super Array kit (Super Arrays Bioscience Corp., Frederick, MD, USA) following manufacturer’s instructions and were recorded using an MX3005P LightCycler (Stratagene, La Jolla, CA, USA).

HSP 70A = experiment: Induction of HSP 70A in nematodes (qRT-PCR); format: in vivo, Caenorhabditis elegans; conditions: 2 h exposure, normalized to GAPDH, three repetitions
Description: Gene expression of HSP 70A in nematodes was completed as described in Saini et al. (2011). Briefly, C. elegans N2 strains were cultured in the dark and at room temperature on sterile plates (10 mm; VWR, Edmonton, AB, Canada) containing 10% bacteriological agar (Sigma-Aldrich, Oakville, ON, Canada) and autoclaved Baker’s yeast (1%, w/v). C. elegans were sub-cultured every 14 days to fresh plates. Exposure experiments began using C. elegans, which were two weeks old. These cultures were exposed for 2 h to either DMSO (negative control) or various concentrations (0.1, 1.0, 10.0, and 100.0 µM) of LOB3 dissolved in DMSO. After exposure, these organisms were then re-cultured to assess the effects of LOB3 on HSP 70A gene expression. An unamended culture medium was used as the control treatment. After treatment, cultures were centrifuged at 400× g for 10 min at 4 °C. The pellet was retained and stored at −80 °C until further analysis.
RNeasy® Mini kits (Qiagen, Mississauga, ON, Canada) were used to extract total RNA from C. elegans lysates, according to the manufacturer’s instructions. RNA quality was confirmed and quantified using agarose gel electrophoresis and a Nano Drop® spectrophotometer (Thermo Fisher Scientific, Ottawa, ON, Canada), respectively. […] This was accomplished using a Stratagene MX3005P LightCycler (La Jolla, CA, USA). The glyceraldehyde-3-phosphate dehydrogenase gene (GAPDH; GenBank Accession No. X04818) was used as the reference housekeeping gene for qRT-PCR analyses. The primer pairs used during qRT-PCR are listed in Table 2. qRT-PCR reactions were performed using QuantiFast® SYBR® Green PCR kit (Qiagen, Mississauga, ON, Canada) following the manufacturer’s instructions. The thermocycler conditions included an initial denaturation at 95 °C for 5 min, followed by 45 cycles of denaturation at 95 °C for 30 s, annealing at 55 °C for 30 s and elongation at 60 °C for 45 s, to amplify the target gene. Relative gene expression levels were corrected against the GAPDH housekeeping gene using MXPro software. All analyses were completed in triplicate.

C. elegans = experiment: Lethality in nematode cultures; format: in vivo, Caenorhabditis elegans; conditions: 100 µM, 2 h exposure
[2] = system: breast cancer cell line MDA-MB-231; conditions: doses lower than 10 µM; cited from earlier work
cancer C6 cells = conditions: cited from earlier work
[3] = administered orally and intravenously, cited from earlier work
Source text: The combined characteristics of the strong immunosuppressive activity and low toxicity make LOB3 an immunosuppressive drug candidate. Other LOs and their analogs have also been investigated for their immunosuppressant activity. […] Similarly, [1–8-NαC], [1-(Rs, Ss)-MetO]-linusorb B1 (LO1OB1, also known as CLE) ...

[4] = LOs in pig adipose after flaxseed diet (HPLC-ToF-MS); conditions: pig fed diet with 15% extruded flaxseed meal; fat biopsy at 10th rib, chloroform extract, HPLC-ToF-MS molecular ions
Source text: Swine were fed a diet consisting of 15% flaxseed meal that was combined with other ingredients then extruded. Swine fat samples were taken from an 8 mm biopsy punch at the 10th rib, approximately 5 cm from the backbone [31]. The tissue samples were then extracted with chloroform and the extracts were dried, taken up in acetonitrile, and analyzed via direct loop injections using an Agilent 1100-series high-performance liquid chromatography (HPLC, Agilent, Santa Clara, CA, USA) equipped with a time-of-flight mass spectrometer (ToF-MS). Each sample extract was injected at a flow rate of 50 μL/min. The mobile phase consisted of 95% water: methanol containing 0.1% formic acid, and 5% acetonitrile.

Antiparallel (%) [1] | Parallel (%) [1] | Random Coil (%) [1] | α-Helix (%) [1] | β-Turn (%) [1] | Substance | BAK1 (BCL2 antagonist/killer 1) up- or down-regulated (Calu-3 cells) | BCL2 (B-cell lymphoma 2) up- or down-regulated (Calu-3 cells) | CASP10 (Caspase 10) up- or down-regulated (Calu-3 cells) | CIDEA (Cell death-inducing DFFA-like effector A) up- or down-regulated (Calu-3 cells) | CIDEB (Cell death-inducing DFFA-like effector B) up- or down-regulated (Calu-3 cells) | Fas (TNF receptor superfamily member 6) up- or down-regulated (Calu-3 cells) | FasL (Fas ligand) up- or down-regulated (Calu-3 cells) | HRK (Harakiri) up- or down-regulated (Calu-3 cells) | TNF (Tumor necrosis factor) up- or down-regulated (Calu-3 cells) | TP53 (Tumor protein p53) up- or down-regulated (Calu-3 cells) | TP53BP2 (Tumor protein p53 binding protein 2) up- or down-regulated (Calu-3 cells) | also measured
0.00% | 0.30% | 18.20% | 75.30% | 6.20% | [1–8-NαC], [1-(Rs, Ss)-MetO]- linusorb B1 [LO1OB1] | NE | – ^c | NE | + | + | + | NE | + | + | NE | + | 
0.00% | 0.40% | 0.10% | > 75% and 98.90% | 0.60% | [1–9-NαC], [1-(Rs, Ss)-MetO]- linusorb B2 [LO1OB2] | NE ^b | – | + | + | + | + | NE | + | + | + | + | 

Substance | Antiparallel (%) [1] | Parallel (%) [1] | Random Coil (%) [1] | α-Helix (%) [1] | β-Turn (%) [1] | BAK1 (BCL2 antagonist/killer 1) up- or down-regulated (Calu-3 cells) | BCL2 (B-cell lymphoma 2) up- or down-regulated (Calu-3 cells) | CASP10 (Caspase 10) up- or down-regulated (Calu-3 cells) | CIDEA (Cell death-inducing DFFA-like effector A) up- or down-regulated (Calu-3 cells) | CIDEB (Cell death-inducing DFFA-like effector B) up- or down-regulated (Calu-3 cells) | Fas (TNF receptor superfamily member 6) up- or down-regulated (Calu-3 cells) | FasL (Fas ligand) up- or down-regulated (Calu-3 cells) | HRK (Harakiri) up- or down-regulated (Calu-3 cells) | TNF (Tumor necrosis factor) up- or down-regulated (Calu-3 cells) | TP53 (Tumor protein p53) up- or down-regulated (Calu-3 cells) | TP53BP2 (Tumor protein p53 binding protein 2) up- or down-regulated (Calu-3 cells) | also measured
[1–9-NαC]-linusorb B3 [LOB3] | 0.00% | 0.3% | 0.1% | 98.90% | 0.7% | + ^a |  | NE | NE | + | + | + | NE | + | + | + | Increase in HSP 70A production (HSP 70A; 0.1 µM): 30%; Increase in HSP 70A production (HSP 70A; 1.0 µM): 3.5 fold; Increase in HSP 70A production (HSP 70A; 10.0 µM): 30%; Lethality (C. elegans): lethal; Cytotoxic effects [2]: no cytotoxic effects; Cytotoxic effects (cancer C6 cells; concentrations greater than 10.0 µM, changes in cell shape and reduction in cell numbers): cytotoxic effects were observed; Cytotoxic effects (cancer C6 cells; doses lower than 10 µM): no cytotoxic effects; Toxicity ([3]; mice): non-toxic; Toxicity ([3]; rats): non-toxic; Distribution to adipose tissue [4]: trace amounts
